Measurements as given in patent US5830910A (priority 1995, dated 1998).
“Also recorded” adds a separate entry of the source. Like-named read-outs stand apart in the source and are kept apart here.

Key:
Type in all cases: cell-based, rat
[1] = tested on: neuronal [Ca^2+]i in cultured hippocampal neurons; test: measurement of [Ca^2+]i, fura-2 imaging; details: for reduction in peak [Ca^2+]i response to glutamate: 1 h
Text: (§1) Dissociated embryonic rat hippocampal cell cultures were established and maintained. All procedures conformed with the NIH Guide for the Care and Use of Laboratory Animals and were approved by the University of Kentucky Animal Care and Use Committee. Cultures were maintained on a polyethyleneimine-coated substrate in plastic 35-mm dishes or 96 wall plates (for cell survival studies) or glass-bottom 35-mm dishes (for [Ca^2+ ]i imaging studies). The cell density was ^~ 70-100 cells/mm^2. Cells were maintained in Eagle's minimum essential medium supplemented 10% with fetal bovine serum and containing 20 mM sodium pyruvate. […] Aβ25-35 (Bachem, lot ZJ744) and Aβ1-40 (Bachem, lot ZK600) were stored in the lyophilized form, and stocks were prepared immediately before use by dissolving the peptide at a concentration of 1 mM in sterile distilled water. […] Glutamate and colchicine (Sigma) were prepared as 200-500x stocks in saline. Cytochalasins D and E (Sigma) and calcium ionophore 4-bromo-A23187 (Calbiochem) were prepared as 500x stocks in dimethyl sulfoxide. Vitamin E (α-tocopherol; Sigma) was prepared as a 500x stock in ethanol. Nordihydroguaiaretic acid and FeSo4 were prepared as 500x stocks in sterile water.
Fluorescence ratio imaging of the Ca^2+ indicator dye fura-2 was used to quantify [Ca^2+ ]i in neuronal somata. Cells were incubated for 30-40 min in the presence of 2 μM acetoxymethyl ester form of the [Ca^2+ ]i indicator dye fura-2 and were then washed twice (2 ml/wash) with fresh medium and allowed to incubate at least 40 min before imaging. Immediately before imaging, the normal culture medium was replaced with Hanks' balanced saline solution (GIBCO) containing 10 mM HEPES buffer and 10 mM of glucose. Cells were imaged using a Zeiss Attofluor system with a oil objective or Quantex system with a 40x oil objective. The ratio of the fluorescence emission using two different excitation wavelengths (334 and 380 nm) was used to determine [Ca^2+ ]i. The system was calibrated using solutions containing either no Ca^2+ or a saturating level of Ca^2+ (1 mM) according to the following formula: [Ca^2+ ]i =KD [(R-Rmin) / (Rmax -R)] (F0 /FS). Values represent the average [Ca^2+ ]i in the neuronal cell body. Experimental treatments were added to the bathing medium by dilution from 100-500x stocks.
(A) Cultures were pretreated for 1 hr with 100 nM cytochalasin D and then [Ca^2+ ]i in neurons was monitored prior to and following exposure to 50 μM glutamate. The records represent the mean [Ca^2+ ]i in 8-12 neurons. Similar results were obtained in 4 separate experiments.
(B) Aβ-induced potentiation of [Ca^2+ ]i response to glutamate is abrogated by cytochalasin D. Cultures were left untreated (Control) or were exposed to 20 μM Aβ25-35 for 6 hr or cytochalasin D plus Aβ25-35 for 6 hr. The [Ca^2+ ]i was then monitored prior to following exposure to 50 μM glutamate. Values represent the means of 8-14 neurons. Similar results were obtained in 3 separate experiments.
(C) Cultures were pretreated for 3 hr with 50 μM Aβ alone or in combination with 100 nM cytochalasin D. The [Ca^2+ ]i in neurons was then monitored prior to and following exposure to 50 mM KCl. Values represent the mean of 14-23 neurons. Similar results were obtained in a separate experiment.
(D) Cultures were pretreated for 1 h with 100 nM cytochalasin D. The [Ca^2+ ]i in neurons was measured immediately prior to, and at 5 min following, exposure to the indicated concentrations of glutamate. Values represent the means and SEM of determinations made in 17-26 neurons. *P<0.05 (10 μM glutamate), P<0.02 (50 μM glutamate), P<0.01 (100 μAM glutamate) compared to corresponding control values.
FIG. 9. Cultures were pretreated for 3 h with vehicle (control) or 10 μM jasplakinolide. The [Ca^2+ ]i was monitored prior to and following exposure to 50 μM glutamate. Values represent the mean of determinations made in 10-12 neurons. Similar results were obtained in two additional experiments.
FIG. 10. […]

[2] = tested on: cultured hippocampal neurons; details: 100 nM cotreated; 50 μM Aβ25-35, 24 hr
[3] = tested on: cultured hippocampal neurons; test: cells; details: pretreated 1 hr; 100 μM glutamate, 24 hr
[4] = tested on: cultured hippocampal neurons; test: cells; details: for viability at 0.1 µM: Rattus norvegicus, Hippocampal neuron
Text: as §1
Neuronal survival was quantified by counting viable neurons in the same microscope fields (10x objective) immediately before experimental treatment and at time points after treatment. In addition, cells were grown in 96-well plates and Alamar blue fluorescence (Alamar Laboratories)was quantified by using a fluorescence plate reader. Alamar Blue is a non-fluorescent substrate that, after reduction by cell metabolites, becomes fluorescent. Usually neurons that died in the time intervals (20-48 h) between examination points were absent. Viability of the remaining neurons was assessed by morphological criteria. Neutrons with intact neurites of uniform diameter and a soma with a smooth, round appearance were considered viable, whereas neurons with fragmented neurites and a vacuolated or swollen soma were considered nonviable. Survival values were expressed as percentages of the initial number of neurons present before experimental treatment. Statistical comparisons were made using ANOVA and Scheffe post-hoc tests for pairwise comparisons.
Values represent the means and SEM of 4 separate cultures (cell counts) or 4 culture wells (Alamar blue assay). ^a p<0.05 compared to control value. ^b p<0.001 compound to control value. ^c p<0.01 compared to value for glutamate-treated cultures. ^d p<0.005 compared to value for glutamate-treated cultures. ^e p<0.001 compared to value for Aβ-treated cultures. ^f p<0.001 compared to value for cultures treated with 20 μM glutamate. ^g p<0.001 compared to cultures treated with 50 μM Aβ+20 μM glutamate. n.d. not determined.

[5] = 100 μM Glutamate + 10 nM substance
[6] = 100 μM Glutamate + 100 nM substance

## COc1cc2c(c(OC)c1OC)-c1ccc(OC)c(=O)cc1[C@@H](NC(C)=O)CC2 [Colchicine, colchicine, reference compound]
[1]; 100 nM
  effect on [Ca^2+]i response to glutamate: did not attenuate
[1]; alone, data not shown
  rest [Ca^2+]i, alone: elevation of rest [Ca^2+ ]i
[1]; data not shown
  effect on [Ca^2+]i response to Aβ: did not attenuate
[2]
  effect on Aβ neurotoxicity: exacerbated Aβ toxicity
[3]
  effect on glutamate neurotoxicity: ineffective
[4]; 100 nM, alone
  effect on neuronal survival, alone: reduced survival
[4]; 100 nM, alone, read-out: Neuron Survival (% of control), Alamar Blue Assay
  viability at 0.1 µM: 40 ± 5.2%
[4]; 50 μM Aβ + 100 nM substance, read-out: Neuron Survival (% of control), Alamar Blue Assay
  viability at 0.1 µM: 23 ± 2.8%
[4]; 100 μM Glutamate + 100 nM substance, read-out: Neuron Survival (% of control), Alamar Blue Assay
  viability at 0.1 µM: 12 ± 2.2%
[4]; read-out: Neuron Survival (% of control), Cell Counts, 100 nM, alone
  viability at 0.1 µM: 85 ± 1.9%

## C=C1[C@@H](C)[C@H]2[C@H](Cc3ccccc3)NC(=O)[C@]23[C@H](OC(C)=O)/C=C/[C@@](C)(O)C(=O)[C@@H](C)C/C=C/[C@H]3[C@@H]1O [Cytochalasin D, cytochalasin D]
[1]; 100 nM pretreatment, 500 nM A23187
  effect on [Ca^2+]i response to calcium ionophore A23187: did not attenuate; also recorded: does not affect
[1]; 100 nM pretreatment, 50 mM KCl
  effect on K^+-induced elevation of [Ca^2+]i: suppressed
[1]; 100 nM, 10 μM glutamate, P<0.05
  reduction in peak [Ca^2+]i response to glutamate: approximately 60 nM
[1]; 100 nM, 50 μM glutamate, P<0.02
  reduction in peak [Ca^2+]i response to glutamate: approximately 170 nM
[1]; 100 nM, 100 μM glutamate, P<0.01
  reduction in peak [Ca^2+]i response to glutamate: ~460 nM
[1]; 100 nM, 1 h pretreatment, 50 μM Aβ for 3 and 6 h
  rest [Ca^2+]i after Aβ exposure: not significantly elevated
[1]; 100 nM, 1 hr pretreatment, 50 μM glutamate
  reduction of [Ca^2+]i response to glutamate: approximately 30%
[1]; Aβ pretreatment, 50 μM glutamate
  effect on Aβ-induced potentiation of [Ca^2+]i response to glutamate: completely blocked; also recorded: suppressed; also recorded: abrogated
[1]; pretreated
  [Ca^2+]i responses to glutamate, Aβ, and membrane depolarization: attenuated
[2]
  effect on Aβ neurotoxicity: essentially eliminated
[3]
  effect on glutamate neurotoxicity: significantly attenuated
[4]; 10 nM, alone
  Neuron Survival (% of control), Alamar Blue Assay: 97 ± 7.8 % of control
  Neuron Survival (% of control), Cell Counts: 89 ± 2.4 % of control
[4]; 100 nM, alone
  Neuron Survival (% of control), Alamar Blue Assay: 91 ± 5.9 % of control
  Neuron Survival (% of control), Cell Counts: 87 ± 2.2 % of control
[4]; 50 μM Aβ + 10 nM substance
  Neuron Survival (% of control), Alamar Blue Assay: 55 ± 2.5 % of control
[4]; 50 μM Aβ + 100 nM substance
  Neuron Survival (% of control), Alamar Blue Assay: 74 ± 1.3 % of control
[4]; 50 μM Aβ + 20 μM Glut with 100 nM substance
  Neuron Survival (% of control), Alamar Blue Assay: 63 ± 2.5 % of control
[4]; [5]
  Neuron Survival (% of control), Alamar Blue Assay: 43 ± 6.7 % of control
  Neuron Survival (% of control), Cell Counts: 54 ± 7.4 % of control
[4]; [6]
  Neuron Survival (% of control), Alamar Blue Assay: 42 ± 4.2 % of control
  Neuron Survival (% of control), Cell Counts: 45 ± 9.8 % of control
[4]; 1-100 nM, alone
  effect on neuronal survival, alone: no significant effect on neuronal survival
